{
  "source": "patent US5677350A",
  "about": "“Inhibition of cancer cell growth, proliferation, and metastasis using N,N'-dα,ω-diaminoalkanes” (priority 1995, dated 1997)",
  "key": {"ODC [1]": {"target": "T1, ODC (Rattus norvegicus, UniProt P09057)", "T1 sequence (P09057 1-461)": "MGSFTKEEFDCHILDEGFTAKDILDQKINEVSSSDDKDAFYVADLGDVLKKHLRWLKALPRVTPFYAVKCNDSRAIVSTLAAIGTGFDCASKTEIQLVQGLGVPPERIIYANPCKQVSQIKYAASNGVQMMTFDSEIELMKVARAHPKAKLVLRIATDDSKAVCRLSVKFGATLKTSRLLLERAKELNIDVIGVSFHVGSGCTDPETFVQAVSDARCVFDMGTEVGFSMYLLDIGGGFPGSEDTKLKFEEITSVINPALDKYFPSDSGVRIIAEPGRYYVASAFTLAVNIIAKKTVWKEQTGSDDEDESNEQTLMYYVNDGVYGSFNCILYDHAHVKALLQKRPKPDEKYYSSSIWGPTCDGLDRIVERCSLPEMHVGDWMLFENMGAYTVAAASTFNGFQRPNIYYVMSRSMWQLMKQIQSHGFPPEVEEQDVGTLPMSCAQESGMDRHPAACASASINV", "assay": "ODC activity in insulin-induced H-35 hepatoma cells", "format": "cell-based", "conditions": "100 μM; for ODC activity (in words): added simultaneously with insulin", "description": "It is known that in hepatoma H-35 cells, ODC activity is very low in quiescent cells, and is increased by the addition of 10^-6 M insulin, reaching a peak approximately 4 to 5 hours after the addition of the insulin."}, "ODC [2]": {"target": "T1, ODC", "conditions": "for inhibition at 15000 µM: read-out: ODC activity decreased"}, "[3]": {"tested_on": "rat H-4-II-E hepatoma cells", "assay": "Proliferation of rat H-4-II-E hepatoma cells in culture", "format": "cell-based", "description": "(§1) Incubation of the cultures was carried out in standard fashion in the presence of 1 mM aminoguandine, an inhibitor of polyamine oxidases (PAO).\nCell proliferation studies were also conducted to analyze the effect of the terminal groups on cell inhibition. […] The results are depicted graphically in FIG. 5.\nComparative proliferation studies were also carried out to study the effect of chain length on the inhibitory effect of N,N'-dibenzylaminoalkanes. (See FIG. 6.) The in vitro inhibitory effects of DMP, DMC, and DBPr, were studied in the same rat H-4-II-E hepatoma cells as the above experiments.\nResults are shown graphically in FIG. 10."}, "[4]": {"tested_on": "rat H-4-II-E hepatoma cells", "assay": "Cell morphology of rat H-4-II-E hepatoma cells (photomicrographs)", "format": "cell-based", "description": "as §1\nFIG. 7 is a series of photomicrographs (×160) of the above homologous cultures. The photomicrographs were taken 24 hours after introduction of the dibenzyldiaminoalkanes. […] Photo 7A is the control culture."}, "[5]": {"tested_on": "active putrescine transport", "assay": "Uptake of (1,4-14C)-putrescine by H-4-II-E hepatoma cells", "format": "cell-based, rat", "description": "(1,4-^14 C)-putrescine (10 μM) was added to the culture medium, and radioactivity measured in the cells (dpm/10 μg of protein). Uptake by control cells was considered to be 100%.\nBecause putrescine uptake by cells is regulated by an active transport system, its Km was determined for the H-4-II-E hepatoma cell line. The uptake of (1,4-^14 C)-putrescine was determined at two different putrescine concentrations as a function of time.\nEach value of the plot was corrected by subtracting the amount of label due to non-specific binding to the cell membranae."}, "H-35 cells": {"tested_on": "H-35 cells", "assay": "DBP uptake and intracellular distribution in H-35 hepatoma cells", "format": "in vitro ADME, rat"}, "[6]": {"tested_on": "insulin-induced H-35 hepatoma cells", "assay": "Intracellular polyamine levels in insulin-induced H-35 hepatoma cells", "format": "cell-based, rat", "conditions": "100 μM, hour 4"}, "[7]": {"tested_on": "cell-derived rat and human xenografts", "conditions": "compared with 0.15% DBP; cited from earlier work"}, "[8]": {"conditions": "added 3 hours after insulin (time 4 hours)"}, "[9]": {"conditions": "H-35 cells not treated with insulin"}},
  "data": [
    {"smiles": "c1ccc(CNCCCCCNCc2ccccc2)cc1", "note": "[DBC, N,N'-dibenzylcadaverine]", "values": [
      {"measurement": "ODC inhibition (in words)", "setting": "ODC [1]; [8]", "value": "ODC inhibition values were very similar"},
      {"measurement": "ODC activity (in words)", "setting": "ODC [1]", "value": "no significant ODC activity was detected"},
      {"measurement": "in vitro ODC inhibition (in words)", "setting": "ODC [2]; isolated ODC", "value": "weaker inhibitors than putrescine itself"},
      {"measurement": "inhibition at 15000 µM", "setting": "ODC [2]", "value": "< 10", "unit": "%"},
      {"measurement": "effect on cell proliferation", "setting": "[3]; 100 μM, time not stated", "value": "showed inhibition of cell proliferation"},
      {"measurement": "effect on cell morphology", "setting": "[4]; 100 μM, 24 hours", "value": "affect cell morphology similarly"},
      {"measurement": "inhibition of uptake of exogenous putrescine", "setting": "[5]; (1,4-14C)-putrescine 10 μM", "value": "produced an inhibition of the uptake of exogenous putrescine"}
    ]},
    {"smiles": "c1ccc(CNCCCCNCc2ccccc2)cc1", "note": "[DBP, N,N'-dibenzylputrescine]", "values": [
      {"measurement": "ODC inhibition (in words)", "setting": "ODC [1]; [8]", "value": "ODC inhibition values were very similar"},
      {"measurement": "ODC activity (in words)", "setting": "ODC [1]", "value": "no significant ODC activity was detected"},
      {"measurement": "ODC inhibition (in words)", "setting": "ODC [1]; time 1 hour", "value": "required longer time periods to reach similar ODC inhibition levels"},
      {"measurement": "inhibition at 15000 µM", "setting": "ODC [2]", "value": "< 10", "unit": "%"},
      {"measurement": "intracellular distribution of DBP, cytosol", "setting": "H-35 cells; [9]", "value": 97, "unit": "%"},
      {"measurement": "intracellular distribution of DBP, nuclear fraction", "setting": "H-35 cells; [9]", "value": 2, "unit": "%"},
      {"measurement": "DBP uptake, of the amount added", "setting": "H-35 cells; H-35 cells not treated with insulin, 100 μM, 24 hours", "value": "approximately 6±2%"},
      {"measurement": "DBP uptake, of the amount of putrescine added to the medium", "setting": "H-35 cells; insulin-induced H-35 cells, 100 μM", "value": "approximately 13±4%"}
    ]},
    {"smiles": "c1ccc(CNCCCNCc2ccccc2)cc1", "note": "[DBPr, dibenzylpropanediamine]", "values": [
      {"measurement": "inhibition at 15000 µM", "setting": "ODC [2]", "value": "< 10", "unit": "%"}
    ]},
    {"smiles": "CCNCCCCNCC", "note": "[DEP, diethyl putrescine]", "values": [
      {"measurement": "inhibition at 15000 µM", "setting": "ODC [2]", "value": 13, "unit": "%"}
    ]},
    {"smiles": "NCCCC(N)(C(=O)O)C(F)F", "note": "(stereo not drawn) [DFMO, difluoromethylornithine]", "values": [
      {"measurement": "ODC inhibited from the control group", "setting": "ODC [1]; added 1 hour before harvesting (6 hours after insulin)", "value": 79, "unit": "%"},
      {"measurement": "ODC inhibition (in words)", "setting": "ODC [1]; [8]", "value": "ODC inhibition values were very similar"},
      {"measurement": "ODC activity (in words)", "setting": "ODC [1]", "value": "no significant ODC activity was detected"},
      {"measurement": "effect on cell proliferation", "setting": "[3]; 100 μM, time not stated", "value": "ineffective in inhibiting cell proliferation"},
      {"measurement": "effect on cell proliferation", "setting": "[3]; 1 mM, after 48 hours", "value": "inhibit cell proliferation"},
      {"measurement": "minimal effective concentration", "setting": "[3]; H4IIE, rat hepatoma cell line, read-out: concentration required for similar cytostatic effect", "value": 1000, "unit": "µM"},
      {"measurement": "intracellular putrescine level", "setting": "[6]", "value": "decreased the endogenous levels of putrescine"},
      {"measurement": "intracellular spermidine level", "setting": "[6]", "value": "lowered the levels of spermidine"},
      {"measurement": "intracellular spermine level", "setting": "[6]", "value": "Neither reagent had an effect on the intracellular concentration of spermine"},
      {"measurement": "concentration required to produce the same effect on xenografts", "setting": "[7]", "value": 2, "unit": "%"},
      {"measurement": "effect on cell morphology", "setting": "[4]; 100 μM, 24 hours", "value": "no morphological changes"},
      {"measurement": "effect on cell morphology", "setting": "[4]; 1 mM", "value": "no morphological changes"}
    ]},
    {"smiles": "CNCCCCNC", "note": "[DMP, dimethyl putrescine]", "values": [
      {"measurement": "inhibition at 15000 µM", "setting": "ODC [2]", "value": 33, "unit": "%"}
    ]},
    {"smiles": "NCCCCN", "note": "[putrescine, 1,4-diaminobutane]", "values": [
      {"measurement": "ODC inhibition (in words)", "setting": "ODC [1]; time 1 hour", "value": "required longer time periods to reach similar ODC inhibition levels"},
      {"measurement": "inhibition at 15000 µM", "setting": "ODC [2]", "value": 57, "unit": "%"},
      {"measurement": "intracellular putrescine level", "setting": "[6]", "value": "greatly increased the putrescine cell contents"},
      {"measurement": "intracellular spermidine level", "setting": "[6]", "value": "very little effect on intracellular spermidine and spermine levels"},
      {"measurement": "intracellular spermine level", "setting": "[6]", "value": "very little effect on intracellular spermidine and spermine levels"},
      {"measurement": "Km", "setting": "[5]; 2 mM and 20 mM (1,4-14C)-putrescine", "value": "5.2 ± 0.6", "unit": "µM"}
    ]}
  ]
}
